Experiment [1] concerns K. pneumoniae ATCC 700603. It counts as cell-based, Klebsiella pneumoniae. The text has this:
(§1) Bacteria were cultivated in Luria-Bertani (LB) broth.

Another experiment relates to K. pneumoniae 3026. The class given is cell-based, Klebsiella pneumoniae.
From the text: as §1

A further experiment concerns A. baumannii 1318. It counts as cell-based, Acinetobacter baumannii.
From the text: as §1

The next experiment deals with A. baumannii 1337. The class given is cell-based, Acinetobacter baumannii.
From the text: as §1

The next experiment deals with MRSA ATCC 43300. The class given is cell-based, Staphylococcus aureus.
From the text: as §1

For a further experiment, the system named is MRSA 3393. It counts as cell-based, Staphylococcus aureus.
From the text: as §1

The subject of a further experiment is MRSA USA 300. It counts as cell-based, Staphylococcus aureus.
From the text: as §1

Another experiment deals with E. coli S. It counts as cell-based, Escherichia coli.
From the text: as §1

A further experiment has as its system E. coli ATCC 25922. It counts as cell-based, Escherichia coli.
From the text: as §1

≈ marks a conversion by molar mass, not a printed value. Where two headings read alike, the source gives them in different places. Non-standard residues stand in square brackets, D forms with d. Residues, ends and D or L forms follow the SMILES beside them. *: point of attachment. Octanoyl = CCCCCCCC(=O)*

Consider `CC[C@@H](C)[C@@H](NC(=O)[C@@H](CCCNC(=N)N)NC(=O)[C@@H](CCCNC(=N)N)NC(=O)[C@@H](CC(C)C)NC(=O)[C@@H](Cc1ccccc1)NC(=O)[C@H](N)CCCNC(=N)N)C(=O)N[C@H](Cc1ccccc1)C(=O)N[C@H](Cc1ccccc1)C(=O)N[C@H](Cc1ccccc1)C(=O)N[C@H](Cc1ccccc1)C(N)=O` [D-HT2] (H-[dR][dF][dL][dR][dR][dI][dF][dF][dF][dF]-NH2; N-terminus assumed), for which, in [1], the “MIC Gram- K. p ATCC 700603” value came out at 100 µM (≈ 145 µg/mL). Also, in the experiment on K. pneumoniae 3026, the “MIC Gram- K. p 3026” value was over 100 µM. The “MIC Gram- A. b 1318” value in the experiment with A. baumannii 1318 came out at 6.25 µM (≈ 9.05 µg/mL). Also, the “MIC Gram- A. b 1337” value with A. baumannii 1337 is 12.5 µM (≈ 18.1 µg/mL). For the same compound, the “MIC Gram+ MRSA ATCC 43300” value with MRSA ATCC 43300 (ATCC 43300) was 6.25 µM (≈ 9.05 µg/mL). In the experiment with MRSA 3393 (3393), the “MIC Gram+ MRSA 3393” value worked out at 6.25 µM (≈ 9.05 µg/mL). The “MIC Gram+ MRSA USA 300” value against MRSA USA 300 was determined as 6.25 µM (≈ 9.05 µg/mL). In addition, the “MIC Gram- E. coli S” value against E. coli S was 25 µM (≈ 36.2 µg/mL). Further, the “MIC Gram- E. coli ATCC 25922” value in the experiment with E. coli ATCC 25922 came out at 50 µM (≈ 72.4 µg/mL).
As to `CC[C@H](C)[C@H](NC(=O)[C@@H](CCCNC(=N)N)NC(=O)[C@H](CCCNC(=N)N)NC(=O)[C@H](CC(C)C)NC(=O)[C@H](Cc1ccccc1)NC(=O)[C@H](Cc1ccccc1)NC(=O)[C@H](Cc1ccccc1)NC(=O)[C@@H](N)Cc1ccccc1)C(=O)N[C@@H](Cc1ccccc1)C(N)=O` [F-SHf(R^5,dR^6)] (H-FFFFLR[dR]IF-NH2; N-terminus assumed), the “MIC Gram- K. p ATCC 700603” value in experiment [1] is over 100 µM. Also, the “MIC Gram- K. p 3026” value against K. pneumoniae 3026 is over 100 µM. The “MIC Gram- A. b 1318” value with A. baumannii 1318 is 25 µM (≈ 32.3 µg/mL). For the same compound, the “MIC Gram- A. b 1337” value against A. baumannii 1337 was 25 µM (≈ 32.3 µg/mL). Also, in the experiment on MRSA ATCC 43300 (ATCC 43300), the “MIC Gram+ MRSA ATCC 43300” value was determined as 3.13 µM (≈ 4.04 µg/mL). The “MIC Gram+ MRSA 3393” value in the experiment with MRSA 3393 (3393) stood at 3.13 µM (≈ 4.04 µg/mL). For the same compound, in the experiment with MRSA USA 300, the “MIC Gram+ MRSA USA 300” value came to 3.13 µM (≈ 4.04 µg/mL). Also, in the experiment with E. coli S, the “MIC Gram- E. coli S” value was 25 µM (≈ 32.3 µg/mL). Also, the “MIC Gram- E. coli ATCC 25922” value against E. coli ATCC 25922 was over 100 µM.
As to `CC[C@H](C)[C@H](NC(=O)[C@H](CCCNC(=N)N)NC(=O)[C@@H](CCCNC(=N)N)NC(=O)[C@H](CC(C)C)NC(=O)[C@H](Cc1ccccc1)NC(=O)[C@H](Cc1ccccc1)NC(=O)[C@H](Cc1ccccc1)NC(=O)[C@@H](N)Cc1ccccc1)C(=O)N[C@@H](Cc1ccccc1)C(N)=O` [F-SHf(dR^5)] (H-FFFFL[dR]RIF-NH2; N-terminus assumed), in [1], the “MIC Gram- K. p ATCC 700603” value is over 100 µM. Moreover, the “MIC Gram- K. p 3026” value against K. pneumoniae 3026 is over 100 µM. The “MIC Gram- A. b 1318” value in the experiment with A. baumannii 1318 is 25 µM (≈ 32.3 µg/mL). For the same compound, the “MIC Gram- A. b 1337” value in the experiment with A. baumannii 1337 was 25 µM (≈ 32.3 µg/mL). Besides, the “MIC Gram+ MRSA ATCC 43300” value against MRSA ATCC 43300 (ATCC 43300) was determined as 3.13 µM (≈ 4.04 µg/mL). Besides, the “MIC Gram+ MRSA 3393” value against MRSA 3393 (3393) was determined as 3.13 µM (≈ 4.04 µg/mL). For the same compound, the “MIC Gram+ MRSA USA 300” value in the experiment with MRSA USA 300 came to 3.13 µM (≈ 4.04 µg/mL). Further, the “MIC Gram- E. coli S” value against E. coli S is 25 µM (≈ 32.3 µg/mL). In the experiment on E. coli ATCC 25922, the “MIC Gram- E. coli ATCC 25922” value is over 100 µM.
With `CC[C@H](C)[C@H](NC(=O)[C@@H](CCCNC(=N)N)NC(=O)[C@@H](CCCNC(=N)N)NC(=O)[C@H](CC(C)C)NC(=O)[C@H](Cc1ccccc1)NC(=O)[C@H](Cc1ccccc1)NC(=O)[C@H](Cc1ccccc1)NC(=O)[C@@H](N)Cc1ccccc1)C(=O)N[C@@H](Cc1ccccc1)C(N)=O` [F-SHf(dR^5, 6)] (H-FFFFL[dR][dR]IF-NH2; N-terminus assumed), in [1], the “MIC Gram- K. p ATCC 700603” value is 25 µM (≈ 32.3 µg/mL). In addition, in the experiment with K. pneumoniae 3026, the “MIC Gram- K. p 3026” value came to 25 µM (≈ 32.3 µg/mL). Further, in the experiment with A. baumannii 1318, the “MIC Gram- A. b 1318” value was 12.5 µM (≈ 16.1 µg/mL). For the same compound, in the experiment with A. baumannii 1337, the “MIC Gram- A. b 1337” value was 25 µM (≈ 32.3 µg/mL). In addition, the “MIC Gram+ MRSA ATCC 43300” value in the experiment with MRSA ATCC 43300 (ATCC 43300) turned out to be 3.13 µM (≈ 4.04 µg/mL). Besides, the “MIC Gram+ MRSA 3393” value with MRSA 3393 (3393) was found to be 3.13 µM (≈ 4.04 µg/mL). In the experiment on MRSA USA 300, the “MIC Gram+ MRSA USA 300” value is 3.13 µM (≈ 4.04 µg/mL). The “MIC Gram- E. coli S” value against E. coli S stood at 6.25 µM (≈ 8.07 µg/mL). The “MIC Gram- E. coli ATCC 25922” value against E. coli ATCC 25922 was over 100 µM.
With `CC[C@H](C)[C@H](NC(=O)[C@H](CCCNC(=N)N)NC(=O)[C@H](CCCNC(=N)N)NC(=O)[C@H](CC(C)C)NC(=O)[C@H](Cc1ccccc1)NC(=O)[C@H](Cc1ccccc1)NC(=O)[C@H](Cc1ccccc1)NC(=O)[C@H](Cc1ccccc1)NC(=O)[C@@H](N)Cc1ccccc1)C(=O)N[C@@H](Cc1ccccc1)C(N)=O` [FF-SHf(R^5)] (H-FFFFFLRRIF-NH2; N-terminus assumed), the “MIC Gram- K. p ATCC 700603” value in [1] was over 100 µM. Besides, the “MIC Gram- K. p 3026” value against K. pneumoniae 3026 was over 100 µM. In addition, the “MIC Gram- A. b 1318” value against A. baumannii 1318 was 50 µM (≈ 71.9 µg/mL). Further, in the experiment with A. baumannii 1337, the “MIC Gram- A. b 1337” value was over 100 µM. Also, the “MIC Gram+ MRSA ATCC 43300” value in the experiment with MRSA ATCC 43300 and in the experiment on MRSA ATCC 43300 (ATCC 43300) was 1.57 µM (≈ 2.26 µg/mL) each time. Further, the “MIC Gram+ MRSA 3393” value in the experiment with MRSA 3393 is 1.57 µM (≈ 2.26 µg/mL). The “MIC Gram+ MRSA USA 300” value in the experiment on MRSA USA 300 is 3.13 µM (≈ 4.5 µg/mL). The “MIC Gram- E. coli S” value with E. coli S was found to be 100 µM (≈ 144 µg/mL). Besides, the “MIC Gram- E. coli ATCC 25922” value against E. coli ATCC 25922 is over 100 µM.
For the compound `CCCCCCCC(=O)N[C@@H](Cc1ccccc1)C(=O)N[C@@H](CC(C)C)C(=O)N[C@@H](CO)C(=O)N[C@@H](CCCNC(=N)N)C(=O)N[C@H](C(=O)N[C@@H](Cc1ccccc1)C(N)=O)[C@@H](C)CC` [OA-SHf] (Octanoyl-FLSRIF-NH2), in experiment [1], the “MIC Gram- K. p ATCC 700603” value is over 100 µM. In addition, in the experiment on K. pneumoniae 3026, the “MIC Gram- K. p 3026” value is over 100 µM. For the same compound, the “MIC Gram- A. b 1318” value against A. baumannii 1318 was over 100 µM. In the experiment on A. baumannii 1337, the “MIC Gram- A. b 1337” value is over 100 µM. Further, in the experiment with MRSA ATCC 43300 (ATCC 43300), the “MIC Gram+ MRSA ATCC 43300” value was determined as 50 µM (≈ 45.4 µg/mL). Moreover, the “MIC Gram+ MRSA 3393” value against MRSA 3393 (3393) was over 100 µM. Moreover, the “MIC Gram+ MRSA USA 300” value against MRSA USA 300 is over 100 µM. Also, the “MIC Gram- E. coli S” value against E. coli S is over 100 µM. In addition, the “MIC Gram- E. coli ATCC 25922” value in the experiment with E. coli ATCC 25922 is over 100 µM.

Values taken from publication PMC10657444, “Design and evaluation of tadpole-like conformational antimicrobial peptides” (Communications Biology, 2023).
